Legend:
[1] = system: Human umbilical vein endothelial cells (HUVEC); assay: HUVEC alignment to the gratings (contact guidance); assay type: cell-based; conditions: HUVEC on gratings A-10; 50 μM blebbistatin or 10 μM Y27632
Protocol: (§1) For contractility inhibition experiments during endothelial spreading, the cells were treated with DMSO (corresponding v/v), 30 μM ML-7, 10 μM Y27632 or 50 μM blebbistatin. The drugs were dissolved in DMSO (ML-7, blebbistatin) or in distilled water (Y27632) and added to the cells 30 minutes before starting the experiment.
Cell imaging was performed using an inverted Nikon-Ti wide-field microscope (Nikon, Jaw pan) equipped with an Orca R-2 CCD camera (Hamamatsu Photonics, Japan). […] Endothelial spreading on topographic substrates in topographic chips was recorded in parallel time-lapse movies for up to 6 different substrates (a flat control and five different gratings). […]
Collected movies were loaded into ImageJ (National Institutes of Health, USA) and analyzed as follows: In a first step, movies acquired on patterned substrates were filtered by Fast Fourier Transform (FFT). […] The time to onset of spreading on the respective substrates was then measured for each cell detected within all parallel time-lapses acquired. […] A mean time to onset of spreading was calculated for each substrate under analysis by averaging the values measured for all individual cells. HUVEC alignment to the gratings was measured for all cells detected in the last frame of each recorded movie. […]

[2] = system: Human umbilical vein endothelial cells (HUVEC); assay: Time to onset of spreading of HUVEC on substrates (time-lapse microscopy); assay type: cell-based; conditions: HUVEC on gratings A-10, 50 μM blebbistatin, 10 μM Y27632 or 30 μM ML-7 added 30 minutes before
Protocol: To generate confluent monolayers cells were seeded on COC substrates at high density (60-70×10^4 cell/cm^2) as reported by Lampugnani et al. and cultured for three days. To measure the time to onset of spreading, cells were detached from a subconfluent cell culture and resuspended in pre-warmed medium without antibiotics. The cells were then counted, diluted to reach a concentration of 5×10^4 cells in 1 ml of medium and then seeded onto the substrates.
as §1
Cell imaging was performed using an inverted Nikon-Ti wide-field microscope (Nikon, Jaw pan) equipped with an Orca R-2 CCD camera (Hamamatsu Photonics, Japan). After cell seeding, the topographic chip was placed under the microscope in an incubated chamber (Life Imaging Services, Switzerland), where temperature and CO2 concentration were maintained at 37° C. and 5%, respectively. Images were collected with a 20×, 0.45 NA long-distance objective (Plan Fluor, Nikon). Endothelial spreading on topographic substrates in topographic chips was recorded in parallel time-lapse movies for up to 6 different substrates (a flat control and five different gratings). Before starting the experiment, five non-overlapping positions were chosen within each substrate and stored in a position list. Immediately after cell seeding, the experiment was started to automatically acquire a differential interference contrast (DIC) image at each saved position with a time resolution of 1 minute for a total of one or two hours. Focal drift during the experiments was eliminated using the microscope's PFS autofocus system. At the end of the experiment, the resulting time-lapses were converted into a single 8 bit movie for each imaging field under analysis.
Collected movies were loaded into ImageJ (National Institutes of Health, USA) and analyzed as follows: In a first step, movies acquired on patterned substrates were filtered by Fast Fourier Transform (FFT). This procedure eliminates the scattering generated by the gratings. The time to onset of spreading on the respective substrates was then measured for each cell detected within all parallel time-lapses acquired. […] A mean time to onset of spreading was calculated for each substrate under analysis by averaging the values measured for all individual cells. HUVEC alignment to the gratings was measured for all cells detected in the last frame of each recorded movie. […]

C[C@@H](N)[C@H]1CC[C@H](C(=O)Nc2ccncc2)CC1 [Y27632]
average alignment of inhibitor-treated cells to gratings [1]: 24.7±6.4 °
effect of inhibitor on time to onset of spreading / spreading [2]: no effect

Cc1ccc2c(c1)C(=O)C1(O)CCN(c3ccccc3)C1=N2 (stereo not drawn) [Blebbistatin]
average alignment of inhibitor-treated cells to gratings [1]: 26.5±6.5 °
effect of inhibitor on time to onset of spreading / spreading [2]: no effect

O=S(=O)(c1cccc2c(I)cccc12)N1CCCNCC1 [ML-7]
effect of inhibitor on time to onset of spreading / spreading [2]: No spreading could be measured
effect of inhibitor on time to onset of spreading / spreading ([2]; listed as ML7): completely ablates HUVEC spreading

— patent publication US9138512B2, “Implant with a surface layer having a topographic modification” (Biotronik AG, priority 2010, dated 2015)
